PubChem BioAssay AID1259407 (Chemical Carcinogenesis Research Information System (CCRIS), 2018)
The source made the active and inactive calls. How the calls were made is not given here.

Tested on: CCRIS mutagenicity, Ames/micronucleus/aberration tests
Assay: CCRIS mutagenicity studies
[1] = Test System: AMES SALMONELLA TYPHIMURIUM, Strain/Indicator: TA98, Metabolic Activation: NONE, Method: PREINCUBATION
[2] = Test System: AMES SALMONELLA TYPHIMURIUM, Strain/Indicator: TA100, Metabolic Activation: NONE, Method: PREINCUBATION
[3] = Test System: AMES SALMONELLA TYPHIMURIUM, Strain/Indicator: TA1535, Metabolic Activation: NONE, Method: PREINCUBATION
[4] = Test System: AMES SALMONELLA TYPHIMURIUM, Strain/Indicator: TA98, Metabolic Activation: NONE, Method: STANDARD PLATE
[5] = Test System: AMES SALMONELLA TYPHIMURIUM, Strain/Indicator: TA100, Metabolic Activation: NONE, Method: STANDARD PLATE
[6] = Test System: AMES SALMONELLA TYPHIMURIUM, Strain/Indicator: TA100, Metabolic Activation: RAT, LIVER, S-9, AROCLOR 1254, Method: STANDARD PLATE
[7] = Test System: AMES SALMONELLA TYPHIMURIUM, Strain/Indicator: TA1535, Metabolic Activation: NONE, Method: STANDARD PLATE
[8] = Test System: AMES SALMONELLA TYPHIMURIUM, Strain/Indicator: TA98, Metabolic Activation: RAT, LIVER, S-9, AROCLOR 1254, Method: STANDARD PLATE
[9] = Test System: AMES SALMONELLA TYPHIMURIUM, Strain/Indicator: TA1535, Metabolic Activation: RAT, LIVER, S-9, AROCLOR 1254, Method: STANDARD PLATE
[10] = Test System: AMES SALMONELLA TYPHIMURIUM, Strain/Indicator: TA1537, Metabolic Activation: NONE, Method: STANDARD PLATE
[11] = Test System: AMES SALMONELLA TYPHIMURIUM, Strain/Indicator: TA1537, Metabolic Activation: RAT, LIVER, S-9, AROCLOR 1254, Method: STANDARD PLATE

Question: [CH3][Hg][Cl] was tested. Which mutagenic call (End Point: IN VITRO CHROMOSOMAL ABERRATIONS, Test System: CHO CELLS, Metabolic Activation: NONE) did it give?
Answer: Its mutagenic call is “active; positive (structural changes)”.

Question: And the mutagenic call (End Point: IN VITRO MICRONUCLEUS, Test System: CHL/IU CELLS, Metabolic Activation: NONE)?
Answer: The mutagenic call was “active; positive”.

Question: And the mutagenic call (End Point: IN VITRO MICRONUCLEUS, Test System: HUMAN PERIPHERAL LYMPHOCYTES, Metabolic Activation: NONE)?
Answer: Its mutagenic call is “active; positive”.

Question: And the mutagenic call (End Point: IN VITRO MICRONUCLEUS, Test System: HUMAN PERIPHERAL LYMPHOCYTES, Metabolic Activation: NONE, Method: FISH (CENTROMERIC SIGNAL CONTENT))?
Answer: The mutagenic call was “active; positive”.

Question: And the mutagenic call (Test System: AMES SALMONELLA TYPHIMURIUM, Strain/Indicator: TA97, Metabolic Activation: HAMSTER, LIVER, S-9, AROCLOR 1254 (10 OR 30%), Method: PREINCUBATION)?
Answer: Its mutagenic call is “inactive; negative”.

Question: And the mutagenic call (Test System: AMES SALMONELLA TYPHIMURIUM, Strain/Indicator: TA97, Metabolic Activation: NONE, Method: PREINCUBATION)?
Answer: The mutagenic call was “inactive; negative”.

Question: And the mutagenic call (Test System: AMES SALMONELLA TYPHIMURIUM, Strain/Indicator: TA97, Metabolic Activation: RAT, LIVER, S-9, AROCLOR 1254 (10 OR 30%), Method: PREINCUBATION)?
Answer: The mutagenic call was “inactive; negative”.

Question: What about the mutagenic call (Test System: AMES SALMONELLA TYPHIMURIUM, Strain/Indicator: TA98, Metabolic Activation: HAMSTER, LIVER, S-9, AROCLOR 1254 (10 OR 30%), Method: PREINCUBATION) of the same compound?
Answer: The mutagenic call was “inactive; negative”.

Question: What about the mutagenic call [1] of the same compound?
Answer: The mutagenic call was “inactive; negative”.

Question: And the mutagenic call (Test System: AMES SALMONELLA TYPHIMURIUM, Strain/Indicator: TA98, Metabolic Activation: RAT, LIVER, S-9, AROCLOR 1254 (10 OR 30%), Method: PREINCUBATION)?
Answer: The mutagenic call was “inactive; negative”.

Question: What about the mutagenic call (Test System: AMES SALMONELLA TYPHIMURIUM, Strain/Indicator: TA100, Metabolic Activation: HAMSTER, LIVER, S-9, AROCLOR 1254 (10 OR 30%), Method: PREINCUBATION) of the same compound?
Answer: Its mutagenic call is “inactive; negative”.

Question: What about the mutagenic call [2] of the same compound?
Answer: Its mutagenic call is “inactive; negative”.

Question: What about the mutagenic call (Test System: AMES SALMONELLA TYPHIMURIUM, Strain/Indicator: TA100, Metabolic Activation: RAT, LIVER, S-9, AROCLOR 1254 (10 OR 30%), Method: PREINCUBATION) of the same compound?
Answer: Its mutagenic call is “inactive; negative”.

Question: And the mutagenic call (Test System: AMES SALMONELLA TYPHIMURIUM, Strain/Indicator: TA1535, Metabolic Activation: HAMSTER, LIVER, S-9, AROCLOR 1254 (10 OR 30%), Method: PREINCUBATION)?
Answer: Its mutagenic call is “inactive; negative”.

Question: And the mutagenic call [3]?
Answer: Its mutagenic call is “inactive; negative”.

Question: And the mutagenic call (Test System: AMES SALMONELLA TYPHIMURIUM, Strain/Indicator: TA1535, Metabolic Activation: RAT, LIVER, S-9, AROCLOR 1254 (10 OR 30%), Method: PREINCUBATION)?
Answer: Its mutagenic call is “inactive; negative”.

Question: And the mutagenic call (Test System: AMES SALMONELLA TYPHIMURIUM, Strain/Indicator: TA1537, Metabolic Activation: HAMSTER, LIVER, S-9, AROCLOR 1254 (10 OR 30%), Method: PREINCUBATION)?
Answer: The mutagenic call was “inactive; negative”.

Question: What about the mutagenic call (Test System: AMES SALMONELLA TYPHIMURIUM, Strain/Indicator: TA1537, Metabolic Activation: NONE, Method: PREINCUBATION) of the same compound?
Answer: Its mutagenic call is “inactive; negative”.

Question: And the mutagenic call (Test System: AMES SALMONELLA TYPHIMURIUM, Strain/Indicator: TA1537, Metabolic Activation: RAT, LIVER, S-9, AROCLOR 1254 (10 OR 30%), Method: PREINCUBATION)?
Answer: The mutagenic call was “inactive; negative”.

Question: What about the mutagenic call (Test System: E. COLI, Strain/Indicator: WP2 UVRA, Metabolic Activation: NONE, Method: SPOT TEST) of the same compound?
Answer: The mutagenic call was “active; positive”.

Question: What about the mutagenic call (Test System: E. COLI, Strain/Indicator: WP2 UVRA, Metabolic Activation: NONE, Method: STANDARD PLATE) of the same compound?
Answer: The mutagenic call was “active; positive”.

Question: Which results are given for C=CC1CO1 (stereo not drawn)?
Answer: mutagenic call (End Point: IN VIVO CHROMOSOMAL ABERRATIONS, Test System: BONE MARROW CELLS, Species: MOUSE, Strain/Sex: C57B1/6/MALE, Route: IP INJECTION (ONCE)): active; positive; mutagenic call (End Point: IN VIVO MICRONUCLEUS, Test System: BONE MARROW POLYCHROMATIC ERYTHROCYTES, Species: MOUSE, Strain/Sex: C57/BL/MALE, Route: INTRAPERITONEAL INJECTION): active; positive; mutagenic call (End Point: IN VIVO MICRONUCLEUS, Test System: PERIPHERAL BLOOD RETICULOCYTES, Species: MOUSE, Strain/Sex: BALB/C/MALE, Route: IP INJECTION, ONCE): active; positive; mutagenic call (End Point: IN VIVO MICRONUCLEUS, Test System: SPERMATID, Species: RAT, Strain/Sex: SPRAGUE-DAWLEY/MALE, Route: IP INJECTION): active; positive; mutagenic call (End Point: IN VIVO MICRONUCLEUS, Test System: SPERMATIDS, Species: MOUSE, Strain/Sex: (102XC3H)F1/MALE, Route: IP INJECTION): active; positive only at 14 d and higher dose levels; mutagenic call (End Point: IN VIVO MICRONUCLEUS, Test System: SPERMATIDS, Species: MOUSE, Strain/Sex: BALB/C/MALE, Route: IP INJECTION, ONCE): active; positive (positive in golgi-phase and at highest dose after 14 or 16 d); mutagenic call (End Point: IN VIVO MICRONUCLEUS, Test System: SPERMATIDS, Species: RAT, Strain/Sex: LEWIS/MALE, Route: IP INJECTION): active; positive; mutagenic call (End Point: IN VIVO MICRONUCLEUS, Test System: SPLENOCYTES, Species: MOUSE, Strain/Sex: (102XC3H)F1/MALE, Route: IP INJECTION): active; positive; mutagenic call (End Point: IN VIVO MICRONUCLEUS, Test System: SPLENOCYTES, Species: MOUSE, Strain/Sex: BALB/C, Route: IP): active; positive only for 48.8 mg dose at either 2 or 16 d after treatment; mutagenic call (End Point: IN VIVO MICRONUCLEUS, Test System: SPLENOCYTES, Species: RAT, Strain/Sex: LEWIS/MALE, Route: IP INJECTION): active; positive; mutagenic call [4]: inactive; negative; mutagenic call (Test System: AMES SALMONELLA TYPHIMURIUM, Strain/Indicator: TA100, Metabolic Activation: HAMSTER, LIVER, S-9, AROCLOR 1254 (10%), Method: PREINCUBATION): active; positive; mutagenic call [2]: active; positive; mutagenic call [5]: active; positive; mutagenic call (Test System: AMES SALMONELLA TYPHIMURIUM, Strain/Indicator: TA100, Metabolic Activation: RAT, LIVER, S-9, AROCLOR 1254 (10%), Method: PREINCUBATION): active; positive; mutagenic call [6]: active; positive; mutagenic call (Test System: AMES SALMONELLA TYPHIMURIUM, Strain/Indicator: TA1535, Metabolic Activation: HAMSTER, LIVER, S-9, AROCLOR 1254 (10%), Method: PREINCUBATION): active; positive; mutagenic call [3]: active; positive; mutagenic call [7]: active; positive; mutagenic call (Test System: AMES SALMONELLA TYPHIMURIUM, Strain/Indicator: TA1535, Metabolic Activation: RAT, LIVER, S-9, AROCLOR 1254 (10%), Method: PREINCUBATION): active; positive; mutagenic call (Test System: UDS MOUSE SPERM CELL, Strain/Indicator: THY INCORP, Metabolic Activation: IN VIVO, Method: LIQUID SCINTILLATION COUNTING): inactive; negative; mutagenic call (Test System: UDS RODENT HEPATOCYTES, Strain/Indicator: THY INCORP (NON-S-PHASE), Metabolic Activation: NONE, Method: AUTORADIOGRAPHY): inactive; negative

Question: With O=[N+]([O-])c1ccc2c(c1)sc1ccccc12 as the compound, how does the mutagenic call (Test System: AMES SALMONELLA TYPHIMURIUM, Strain/Indicator: TA98(1,8-DNP6), Metabolic Activation: NONE, Method: PREINCUBATION) read?
Answer: Its mutagenic call is “active; positive”.

Question: And the mutagenic call (Test System: AMES SALMONELLA TYPHIMURIUM, Strain/Indicator: TA98(NR), Metabolic Activation: NONE, Method: PREINCUBATION)?
Answer: The mutagenic call was “active; positive”.

Question: What about the mutagenic call (Test System: AMES SALMONELLA TYPHIMURIUM, Strain/Indicator: TA98(NR), Metabolic Activation: RAT LIVER S-9, 3-METHYLCHOLANTHRENE (10%), Method: PREINCUBATION) of the same compound?
Answer: The mutagenic call was “active; positive”.

Question: And the mutagenic call [1]?
Answer: The mutagenic call was “active; positive”.

Question: How did the mutagenic call [4] turn out when O=C1C=C[C@]2(O)c3c(ccc(O)c31)-c1ccc(O)c3c1[C@H]2C1OC1C3=O (stereo partly drawn) was run?
Answer: Its mutagenic call is “active; positive”.

Question: And the mutagenic call [8]?
Answer: Its mutagenic call is “active; positive”.

Question: What about the mutagenic call [5] of the same compound?
Answer: The mutagenic call was “active; positive”.

Question: And the mutagenic call [6]?
Answer: The mutagenic call was “active; positive”.

Question: And the mutagenic call [7]?
Answer: Its mutagenic call is “inactive; negative”.

Question: What about the mutagenic call [9] of the same compound?
Answer: Its mutagenic call is “inactive; negative”.

Question: And the mutagenic call [10]?
Answer: Its mutagenic call is “active; positive”.

Question: What about the mutagenic call [11] of the same compound?
Answer: The mutagenic call was “active; positive”.

Question: Which results are given for O=C(OCc1ccccc1)c1cccc2cccnc12?
Answer: mutagenic call [4]: inactive; negative; mutagenic call [8]: inactive; negative; mutagenic call [5]: inactive; negative; mutagenic call [6]: inactive; negative; mutagenic call [7]: inactive; negative; mutagenic call [9]: inactive; negative; mutagenic call [10]: inactive; negative; mutagenic call [11]: inactive; negative
